Test results from PubChem BioAssay (NCI).
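Step 1: Grow cells in 96-well plates. Step 2: Expose to compound for 48 hours at 5 concentrations. Step 3: Interpolate endpoints linearly; if unreached, use highest concentration. TGI denotes the concentration required for complete inhibition of growth.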

Assays:
Experiment in all cases: inhibition of tumour cell growth, NCI panel, 48 h
SW-620 colon = tested on: SW-620 colon
SN12C renal = tested on: SN12C renal
OVCAR-8 ovarian = tested on: OVCAR-8 ovarian
NCI-H460 lung = tested on: NCI-H460 lung
NCI-H23 lung = tested on: NCI-H23 lung
SNB-19 CNS = tested on: SNB-19 CNS
OVCAR-5 ovarian = tested on: OVCAR-5 ovarian
HOP-18 NSCLC = tested on: HOP-18 NSCLC
UO-31 renal = tested on: UO-31 renal
SK-MEL-5 melanoma = tested on: SK-MEL-5 melanoma
TK-10 renal = tested on: TK-10 renal
LOX IMVI melanoma = tested on: LOX IMVI melanoma
KM12 colon = tested on: KM12 colon
HCT-15 colon = tested on: HCT-15 colon
NCI-H226 lung = tested on: NCI-H226 lung
UACC-257 melanoma = tested on: UACC-257 melanoma
HCC-2998 colon = tested on: HCC-2998 colon
SF-295 CNS = tested on: SF-295 CNS
A498 renal = tested on: A498 renal
OVCAR-3 ovarian = tested on: OVCAR-3 ovarian
EKVX NSCLC = tested on: EKVX NSCLC
U251 CNS = tested on: U251 CNS
SNB-75 CNS = tested on: SNB-75 CNS
KM20L2 colon = tested on: KM20L2 colon
HT29 colon = tested on: HT29 colon
DLD-1 colon = tested on: DLD-1 colon
SK-MEL-2 melanoma = tested on: SK-MEL-2 melanoma
HOP-62 NSCLC = tested on: HOP-62 NSCLC
K-562 leukemia = tested on: K-562 leukemia
ACHN renal = tested on: ACHN renal
A549 NSCLC = tested on: A549 NSCLC
MALME-3M melanoma = tested on: MALME-3M melanoma
SF-539 CNS = tested on: SF-539 CNS
XF 498 CNS = tested on: XF 498 CNS
SF-268 CNS = tested on: SF-268 CNS
786-0 renal = tested on: 786-0 renal
CCRF-CEM leukemia = tested on: CCRF-CEM leukemia
DMS 273 small cell lung = tested on: DMS 273 small cell lung
RPMI-8226 leukemia = tested on: RPMI-8226 leukemia
SK-MEL-28 melanoma = tested on: SK-MEL-28 melanoma
COLO 205 colon = tested on: COLO 205 colon
HL-60(TB) leukemia = tested on: HL-60(TB) leukemia
MDA-MB-231 breast = tested on: MDA-MB-231 breast
UACC-62 melanoma = tested on: UACC-62 melanoma
MDA-N = tested on: MDA-N
MOLT-4 leukemia = tested on: MOLT-4 leukemia
HCT-116 colon = tested on: HCT-116 colon
MDA-MB-435 = tested on: MDA-MB-435
SR leukemia = tested on: SR leukemia
CAKI-1 renal = tested on: CAKI-1 renal
MCF7 breast = tested on: MCF7 breast
M14 melanoma = tested on: M14 melanoma
IGROV1 ovarian = tested on: IGROV1 ovarian
HS 578T breast = tested on: HS 578T breast
OVCAR-4 ovarian = tested on: OVCAR-4 ovarian
BT-549 breast = tested on: BT-549 breast
DU-145 prostate = tested on: DU-145 prostate
SK-OV-3 ovarian = tested on: SK-OV-3 ovarian
NCI/ADR-RES ovarian = tested on: NCI/ADR-RES ovarian
HOP-92 NSCLC = tested on: HOP-92 NSCLC
NCI-H522 lung = tested on: NCI-H522 lung
RXF 393 renal = tested on: RXF 393 renal
T-47D breast = tested on: T-47D breast
PC-3 prostate = tested on: PC-3 prostate

## O=C(c1ccc(Cl)cc1)C1OC12C(=O)Nc1c(Cl)cc(Cl)cc12 (centres undefined)
SW-620 colon
  TGI: > 100 µM
SN12C renal
  TGI: > 100 µM
OVCAR-8 ovarian
  TGI: > 100 µM
NCI-H460 lung
  TGI: > 100 µM
NCI-H23 lung
  TGI: > 100 µM
SNB-19 CNS
  TGI: > 100 µM
OVCAR-5 ovarian
  TGI: > 100 µM
HOP-18 NSCLC
  TGI: > 100 µM
UO-31 renal
  TGI: > 100 µM
SK-MEL-5 melanoma
  TGI: > 100 µM
TK-10 renal
  TGI: > 100 µM
LOX IMVI melanoma
  TGI: > 100 µM
KM12 colon
  TGI: > 100 µM
HCT-15 colon
  TGI: > 100 µM
NCI-H226 lung
  TGI: > 100 µM
UACC-257 melanoma
  TGI: > 100 µM
HCC-2998 colon
  TGI: > 100 µM
SF-295 CNS
  TGI: > 100 µM
A498 renal
  TGI: > 100 µM
OVCAR-3 ovarian
  TGI: 77.8 µM
EKVX NSCLC
  TGI: 65.2 µM
U251 CNS
  TGI: > 100 µM
SNB-75 CNS
  TGI: 83.4 µM
KM20L2 colon
  TGI: > 100 µM
HT29 colon
  TGI: > 100 µM
DLD-1 colon
  TGI: > 100 µM
SK-MEL-2 melanoma
  TGI: > 100 µM
HOP-62 NSCLC
  TGI: > 100 µM
K-562 leukemia
  TGI: > 100 µM
ACHN renal
  TGI: > 100 µM
A549 NSCLC
  TGI: > 100 µM
MALME-3M melanoma
  TGI: > 100 µM
SF-539 CNS
  TGI: > 100 µM
XF 498 CNS
  TGI: 87.8 µM
SF-268 CNS
  TGI: > 100 µM
786-0 renal
  TGI: > 100 µM
CCRF-CEM leukemia
  TGI: 66.3 µM
DMS 273 small cell lung
  TGI: > 100 µM
RPMI-8226 leukemia
  TGI: 45.4 µM
SK-MEL-28 melanoma
  TGI: > 100 µM

## CCCCCCCCCCCCCCCCCCNc1ccn(C2OC(COP(=O)(O)OCC3OC(n4ccc(N)nc4=O)C(O)C3O)C(O)C2O)c(=O)n1 (centres undefined)
SW-620 colon
  TGI: > 100 µM
COLO 205 colon
  TGI: > 100 µM
SN12C renal
  TGI: > 100 µM
OVCAR-8 ovarian
  TGI: > 62.2 µM
HL-60(TB) leukemia
  TGI: > 100 µM
NCI-H460 lung
  TGI: > 78.8 µM
NCI-H23 lung
  TGI: > 100 µM
SNB-19 CNS
  TGI: > 100 µM
MDA-MB-231 breast
  TGI: > 100 µM
UACC-62 melanoma
  TGI: > 100 µM
OVCAR-5 ovarian
  TGI: > 100 µM
MDA-N
  TGI: > 100 µM
UO-31 renal
  TGI: > 100 µM
SK-MEL-5 melanoma
  TGI: > 100 µM
MOLT-4 leukemia
  TGI: > 70.6 µM
TK-10 renal
  TGI: > 100 µM
HCT-116 colon
  TGI: > 100 µM
LOX IMVI melanoma
  TGI: 49.4 µM
MDA-MB-435
  TGI: > 100 µM
KM12 colon
  TGI: > 100 µM
HCT-15 colon
  TGI: > 100 µM
NCI-H226 lung
  TGI: > 100 µM
UACC-257 melanoma
  TGI: > 100 µM
SR leukemia
  TGI: > 100 µM
HCC-2998 colon
  TGI: > 100 µM
SF-295 CNS
  TGI: > 100 µM
CAKI-1 renal
  TGI: > 100 µM
A498 renal
  TGI: > 100 µM
OVCAR-3 ovarian
  TGI: > 100 µM
MCF7 breast
  TGI: > 100 µM
M14 melanoma
  TGI: > 100 µM
IGROV1 ovarian
  TGI: > 100 µM
HS 578T breast
  TGI: > 100 µM
EKVX NSCLC
  TGI: > 100 µM
OVCAR-4 ovarian
  TGI: > 100 µM
U251 CNS
  TGI: > 100 µM
SNB-75 CNS
  TGI: > 100 µM
BT-549 breast
  TGI: > 87.9 µM
HT29 colon
  TGI: > 100 µM
DU-145 prostate
  TGI: > 100 µM
SK-OV-3 ovarian
  TGI: > 100 µM
SK-MEL-2 melanoma
  TGI: > 100 µM
HOP-62 NSCLC
  TGI: > 100 µM
K-562 leukemia
  TGI: > 100 µM
ACHN renal
  TGI: > 100 µM
A549 NSCLC
  TGI: > 100 µM
NCI/ADR-RES ovarian
  TGI: > 100 µM
HOP-92 NSCLC
  TGI: > 100 µM
MALME-3M melanoma
  TGI: > 100 µM
SF-539 CNS
  TGI: > 100 µM
NCI-H522 lung
  TGI: > 100 µM
SF-268 CNS
  TGI: > 100 µM
786-0 renal
  TGI: > 100 µM
RXF 393 renal
  TGI: > 100 µM
CCRF-CEM leukemia
  TGI: > 100 µM
T-47D breast
  TGI: > 100 µM
RPMI-8226 leukemia
  TGI: > 100 µM
PC-3 prostate
  TGI: > 100 µM
SK-MEL-28 melanoma
  TGI: > 100 µM
